According to PMC12337082 (Journal of Biochemical and Molecular Toxicology, 2025):

Experiments:
MCF‐7 [1] = assay: MTT cell viability assay, MCF‐7; format: cell-based, human; conditions: for IC50: Homo sapiens, MCF7, MTT
From the text: (§1) MCF‐7, MDA‐MB‐231, and L‐929 mouse fibroblast cell lines were obtained from the American Type Culture Collection (ATCC, Manassas, Virginia, USA). MCF‐7 is a hormone‐responsive, differentiated mammary epithelium cell line with an ER+, PR+, and HER2‐ pattern (ATCC, HTB‐22). MDA‐MB‐231 is a triple‐negative differentiated mammary epithelium cell line (ATCC, HTB‐26). The L‐929 mouse fibroblast cell line is derived from the normal subcutaneous connective tissue of a mouse and is commonly used in cytotoxicity assays (ATCC, CCL‐1). All cell lines were cultured in DMEM medium (Dulbecco's Modified Eagle Medium, Gibco), supplemented with 10% fetal bovine serum (Gibco), 1% glutamine, and penicillin/streptomycin (Gibco) in a humidified atmosphere containing 5% CO2 at 37°C. Cell viability was tested using Trypan blue staining.
(§2) The MTT [3‐(4,5‐dimethylthiazol‐2‐yl)−2,5‐diphenyltetrazolium bromide] assay is a colorimetric assay for determining cell metabolic activity. In the MTT assay, the yellow dye MTT that dissolves in water is changed by mitochondrial reductase into a purple formazan that is non‐soluble. The water‐insoluble formazan produced is solubilized in a solubilization buffer, and absorbances are detected.
(§3) In 96‐well plates, the cells were cultivated at a density of 5 × 10^3 cells/well using 100 µL medium. […] 10 μL of the MTT labeling reagent (final concentration 0.5 mg/mL) were added to each well at the end of the incubation periods, and the wells were incubated for an additional 4 h. Next, each well received 100 μL of solubilization buffer (10% SDS in 0.01 M HCl) and was overnight incubated, and the absorbance of formazan products was evaluated at 550 nm using a multi‐mode microplate reader (Synergy H1, Biotech Instruments Inc., Vermont, USA). The results were normalized relative to the absorbances of calculated percent concentrations of DMSO. All tests involved three replicates with three independent experiments.
(§4) All statistical evaluations, including t‐tests and IC50 values, were calculated using the GraphPad Prism software tool (v6.0, GraphPad Software Inc., San Diego, USA). Statistical significance was defined as p ˂ 0.05 (*p < 0.05, **p < 0.01, ***p < 0.001, ****p < 0.0001).

[2] = tested on: L‐929 mouse fibroblast cell line; assay: MTT cell viability assay, L‐929 control fibroblasts; format: cell-based
From the text: as §1, §2, §3, §4

MCF‐7 [3] = assay: Annexin V/PI staining, Tali image‐based cytometry, MCF‐7; format: cell-based, human; conditions: MCF‐7, 24 h
From the text: To assess apoptosis and cell death, cells were stained with Annexin V‐PI dyes (Tali Apoptosis Kit‐Annexin V Alexa Fluor 488 and PI‐, Molecular Probes A10788, Invitrogen) and quantified using Tali Image‐Based Cytometer (Invitrogen) and fluorescence microscopy (Olympus CKX41 Inverted Phase Contrast Fluorescence Microscope furbished with reflected fluorescence illuminator CKX‐RFA).
To assess whether our compounds produce their cytotoxic effects through induction of apoptosis, apoptosis was investigated using Annexin V/PI labeling and MMP methods (Figures 4A−C). In addition, by utilizing TALI image‐based cytometry and fluorescent microscopy, the number of cells was analyzed for different concentrations of agents (Table 4).

MDA‐MB‐231 = assay: Mitochondrial membrane potential (JC‐1) apoptosis assay, MDA‐MB‐231; format: cell-based, human; conditions: MDA‐MB‐231, 50 μM, 24 h, MMP assay
Description: (§5) Apoptosis was also investigated by evaluating mitochondrial membrane potential changes (MMP assay). MCF‐7, MDA‐MB‐231, and L‐929 cells were stained with JC‐1 dye according to the manufacturer's protocols (JC‐1 MMP Assay Kit, KA1324, Abnova). The apoptotic to healthy cell ratio was calculated using absorbances collected from two different fluorescence channels (535/595 for healthy cells, 485/535 for apoptotic cells) (Synergy H1, Biotech Instruments Inc., Vermont, USA).

L‐929 = assay: Mitochondrial membrane potential (JC‐1) apoptosis assay, L‐929; format: cell-based, mouse; conditions: L‐929, 50 μM, 24 h, MMP assay
Description: as §5

COX‐2 [4] = assay: Western blot COX‐2 protein expression, MCF‐7; format: cell-based, human; conditions: 24 h
Description: (§6) Total protein levels were measured using the Take3 Multi‐Volume Plate (Synergy H1, BioTek Instruments Inc., Vermont, USA). In accordance with the classical protocol, transferred proteins were exposed to the following primary antibodies: Beta‐actin (NB600‐501, Novus Biologicals), Bax (SPM336, NBP2‐32809), Bcl‐2 (100/D5, NBP2‐15200), cleaved PARP (194C1439, NBP2‐27335), and COX‐2 (D‐12:sc‐166475, Santa Cruz). The bands were visualized with chemiluminescent HRP substrates (Western Bright ECL‐Advansta, K‐12045‐050). Using a chemiluminescence imaging system (Celvin S, BioStep), the relative quantification was done based on the level of β‐actin proteins.

COX‐2 [5] = assay: Western blot COX‐2 protein expression, MDA‐MB‐231; format: cell-based, human; conditions: 24 h
Description: as §6

PGE2 release [6] = assay: PGE2 ELISA, MCF‐7; format: cell-based, human; conditions: Homo sapiens, MCF7; MCF‐7, 50 µM, 24 h
Description: (§7) PGE2 ELISA kit (ENZO, ADI‐900‐001) was used to determine prostaglandin synthesis levels. MCF‐7 and MDA‐MB‐231 breast cancer cells were cultured at a density of 1 × 10^6 cells/well in a 6‐well culture dish. […] Following 24 h of incubation, the medium was replaced with a fresh one, 10 µM arachidonic acid was added, and it was further incubated for 1 h. The PGE2 levels were determined according to the kit protocol.

PGE2 release [7] = assay: PGE2 ELISA, MDA‐MB‐231; format: cell-based, human; conditions: Homo sapiens; MDA‐MB‐231, 50 µM, 24 h
Description: as §7

Bax/Bcl‐2 ratio = assay: Western blot Bax/Bcl‐2 ratio in breast cancer cell lines; format: cell-based, human; conditions: both cell lines, 50 µM, 24 h
Description: as §6

c‐PARP = assay: Western blot cleaved PARP, MDA‐MB‐231; format: cell-based, human; conditions: MDA‐MB‐231, 24 h, all concentrations (50 and 75 µM); not measurable in MCF‐7
Description: as §6

## CCc1cccc2c3c([nH]c12)C(CC)(CC(=O)N/N=C/c1ccc(OC)cc1)OCC3 (racemic) [SGK 206, 2‐(1,8‐Diethyl‐1,3,4,9‐tetrahydropyrano[3,4‐b]indole‐1‐yl) acetic acid[(4‐methoxyphenyl)methylene]acetohydrazide]
MCF‐7 [1]; MCF‐7, 24 h
  IC50: 37 ± 1.74 µM
MCF‐7 [1]; MCF‐7, 48 h
  IC50: 34 ± 5.7 µM
MCF‐7 [1]; MCF‐7, 72 h
  IC50: 26 ± 0.66 µM
MCF‐7 [1]; MCF‐7 in comparison to L‐929, 24 h
  Selectivity index (SI): 1.93
MCF‐7 [1]; MCF‐7 in comparison to L‐929, 48 h
  Selectivity index (SI): 1.4
MCF‐7 [1]; MCF‐7 in comparison to L‐929, 72 h
  Selectivity index (SI): 1.91
[2]; L‐929, 24 h
  IC50: 71.3 ± 2.92 µM
[2]; L‐929, 48 h
  IC50: 47.9 ± 1.2 µM
[2]; L‐929, 72 h
  IC50: 49.7 ± 1.64 µM
[2]; Mus musculus, L929, 24 h, L‐929, 24 h
  IC50: 71 µM
[2]; Mus musculus, L929, 48 h, L‐929, 48 h
  IC50: 47 µM
[2]; Mus musculus, L929, 72 h, L‐929, 72 h
  IC50: 49 µM
MCF‐7 [3]; 25 µM
  Apoptotic cells: 2%
  Dead cells: 9%
  Live cells: 89%
MCF‐7 [3]; 50 µM
  Apoptotic cells: 4%
  Dead cells: 15%
  Live cells: 81%
MCF‐7 [3]; 75 µM
  Apoptotic cells: 19%
  Dead cells: 19%
  Live cells: 62%
MDA‐MB‐231
  Increase in apoptosis compared to the control group: 57%
L‐929
  Increase in apoptosis compared to the control group: 8%
COX‐2 [4]; MCF‐7, 50 µM
  Decrease in COX‐2 protein expression compared to the control group: 30%
COX‐2 [4]; MCF‐7, 75 µM
  Decrease in COX‐2 protein expression compared to the control group: 41%
COX‐2 [5]; MDA‐MB‐231, 50 µM
  Decrease in COX‐2 protein expression compared to the control group: 16%
COX‐2 [5]; MDA‐MB‐231, 75 µM
  Decrease in COX‐2 protein expression compared to the control group: 37%
PGE2 release [6]
  inhibition at 50 µM: 90%
PGE2 release [7]
  inhibition at 50 µM: 91%
Bax/Bcl‐2 ratio
  Bax/Bcl‐2 ratio change: significantly increased
c‐PARP
  c‐PARP (89‐kD fragment) protein change: consistent activation
